# Results reported in patent US20220249599A1, “TREATMENT OF IMPLANTS WITH ENGINEERED ANTIMICROBIAL AMPHIPHILIC PEPTIDES” (priority 2018, published 2022).
# Several values for one entry are separate records, joined by “and”; a condition that tells them apart may be missing. Identical values can stand only once. Like-named read-outs stand apart in the source and are kept apart here. Marks after values point to notes of the source that are not given here. Ends that are not written are not given here.
# Tests used:
# [1] = monkey
# Procedure: Animals will be obtained from the Test Facility's colony of adult male cynomolgous monkeys (Macaca fascicularis) of Chinese origin. Animals will be weighed prior to dosing.
# Intravenous administration will be via 30 minute infusion into a temporary percutaneous catheter placed into a saphenous vein. Prior to and following dose administration, the catheter will be flushed with 0.5 mL saline prior to removal. All dosing syringes will be weighed prior to and following dosing.
# Serial blood samples will be collected via femoral vein (cephalic or saphenous, as necessary). Approximately 1 mL blood samples will be collected into K2EDTA tubes.
# Blood samples will be collected into K2EDTA tubes and stored on wet ice. Whole blood will be processed to plasma by centrifugation (2400-2700 rpm at 5° C.) within 30 minutes of collection. Plasma samples will be split into 2 equal aliquots and stored at −80° C. until analysis.
# Toxicokinetic parameters will be calculated using non-compartmental methods as implemented in the Phoenix® WinNonlin® ver. 6.3 comprehensive TK/PK analysis software program (Pharsight Corporation; Mountain View, Calif.) using an IV infusion model. Toxicokinetic analysis will be conducted using a 30-minute intravenous infusion time. Therefore, 30 minutes will be added to each sample time point postdose to obtain nominal time for TK analysis. Nominal times and dosage levels will be used for all calculations. Values below the lower limit of quantitation (BLQ) will be assigned a value of zero for the toxicokinetic calculations. Microsoft® Excel® 2013 will be used for receipt of bioanalytical data, minor formatting, including setting BLQ values to “0”, transfer into WinNonlin® for TK analysis, and calculation of the mean when an approximated value will be excluded. All plasma concentration data from all animals will be included in the analysis.
# [2] = tested on: Staphylococcus aureus (n = 104); experiment: microbe, parasite or virus in culture; type: cell-based
# Procedure: (§1) The clinical isolates were obtained from USA hospitals. […] Plates were incubated at 35° C. overnight.
# [3] = tested on: Enterobacter spp. (n = 102); type: cell-based, Enterobacter aerogenes and E. cloacae
# Procedure: as §1
# [4] = rat; for AUCinf / AUClast / Cmax / Extrapolated / MRTlast / T1/2: Mean; for Tmax: individual animals
# Procedure: Male Sprague-Dawley Rats will be received from an approved vendor with a single jugular vein cannula (JVC) and allowed to acclimate to the Test Facility for at least 2 days prior to study start. Animals will be weighed prior to dosing. No fasting will be required.
# Intravenous administration will be via 30 minute infusion into a JVC. Following dosing, the catheter will be flushed with ˜0.5 mL saline and tied off to prevent re-access.
# Serial blood samples will be collected via jugular vein cannula (JVC) or by another approved method if patency is lost. The final blood samples will be obtained via direct cardiac puncture following inhalation anesthesia.
# Blood samples will be collected into K2EDTA tubes and stored on wet ice. Whole blood will be processed to plasma by centrifugation (3500 rpm at 5° C.) within 30 minutes of collection. Plasma samples will be transferred into 96 well plates (matrix tubes) and stored at −80° C. until analysis. Administered doses will be determined gravimetrically.
# Prior to extraction, a known concentration of a mass-adjusted internal standard (IS) will be added to assess recovery and allow for quantitation. Purified samples will be further subjected to high-performance liquid chromatography (HPLC) using C18 300 or 130 angstrom columns prior to MS/MS analysis. Multiple charge states will be observed by MS, so MS/MS will be employed to enable multiple reaction monitoring (MRM) analyses to determine the most MRM transitions with the highest signal-to-noise gain. Compound plasma concentrations will be determined by comparing to and compensating with co-purified IS peak intensity and validated calibrated standard curves.
# Pharmacokinetic parameters will be calculated using non-compartmental methods as implemented in the Phoenix® WinNonlin® ver. 6.3 comprehensive TK/PK analysis software program (Pharsight Corporation; Mountain View, Calif.) using an IV infusion model. Pharmacokinetic analysis will be conducted using a 30-minute intravenous infusion time. Therefore, 30 minutes will be added to each sample time point postdose to obtain nominal time for TK analysis. Nominal times and dosage levels will be used for all calculations. Values below the lower limit of quantitation (BLQ) will be assigned a value of zero for the pharmacokinetic calculations. Microsoft® Excel® 2013 will be used for receipt of bioanalytical data, minor formatting, including setting BLQ values to “0”, transfer into WinNonlin® for PK analysis, and calculation of the mean when an approximated value will be excluded. All plasma concentration data from all animals will be included in the analysis. Graphical presentations will be performed using Microsoft® Excel® 2013.
# [5] = IV infusion 1 mg/kg, individual animals
# [6] = IV infusion 3 mg/kg, individual animals
# [7] = IV infusion 10 mg/kg, individual animals
# 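Wherever AUC0-24hr is given: adult male cynomolgus monkeys given a 30-min IV infusion, plasma drug levels quantified by LC-MS/MS against internal standard, parameters from non-compartmental IV infusion model analysis.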
# 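Wherever AUCinf Extrapolated is given: adult male cynomolgus monkeys given a 30-min IV infusion, plasma drug levels quantified by LC-MS/MS against internal standard, parameters from non-compartmental IV infusion model analysis.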
# 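Wherever Dose Normalized AUClast is given: adult male cynomolgus monkeys given a 30-min IV infusion, plasma drug levels quantified by LC-MS/MS against internal standard, parameters from non-compartmental IV infusion model analysis.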
# 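Wherever Dose Normalized Cmax is given: adult male cynomolgus monkeys given a 30-min IV infusion, plasma drug levels quantified by LC-MS/MS against internal standard, parameters from non-compartmental IV infusion model analysis.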
substance,measurement,setting,value
RRWVRRVRRVWRRVVRVVRRWVRR-NH2 (C-terminus assumed) [SEQ ID NO: 1],AUC0-24hr,"[1]; IV infusion 1 mg/kg, Mean",1090 ng·h/mL
same,AUCinf,"[1]; IV infusion 1 mg/kg, Mean",1170 ng·h/mL
same,AUCinf Extrapolated,"[1]; IV infusion 1 mg/kg, Mean",10.0%
same,AUClast,"[1]; IV infusion 1 mg/kg, Mean",983 ng·h/mL
same,Cmax,"[1]; IV infusion 1 mg/kg, Mean",1710 ng/mL
same,Dose Normalized AUClast,"[1]; IV infusion 1 mg/kg, Mean",983
same,Dose Normalized Cmax,"[1]; IV infusion 1 mg/kg, Mean",1710
same,T1/2,"[1]; IV infusion 1 mg/kg, Mean",2 h
same,Vss,"[1]; IV infusion 1 mg/kg, Mean",1380 mL/kg
same,AUC0-24hr,[1]; [5],821 ng·h/mL and 1820 ng·h/mL and 616 ng·h/mL
same,AUCinf,[1]; [5],938* hr*ng/mL and 1730 hr*ng/mL and 610 hr*ng/mL
same,AUClast,[1]; [5],740 ng·h/mL and 1610 ng·h/mL and 595 ng·h/mL
same,CL,[1]; [5],1070* mL/hr/kg and 579 mL/hr/kg and 1640 mL/hr/kg
same,Cmax,[1]; [5],1460 ng/mL and 2660 ng/mL and 997 ng/mL
same,Dose Normalized AUClast,[1]; [5],740 and 1610 and 595
same,Dose Normalized Cmax,[1]; [5],1460 and 2660 and 997
same,Tmax,[1]; [5],2 min
same,Vss,[1]; [5],1530* mL/kg and 1260 mL/kg and 1510 mL/kg
same,AUC0-24hr,"[1]; IV infusion 3 mg/kg, Mean",7580 ng·h/mL
same,AUCinf,"[1]; IV infusion 3 mg/kg, Mean",7710 ng·h/mL
same,AUCinf Extrapolated,"[1]; IV infusion 3 mg/kg, Mean",1.5%
same,AUClast,"[1]; IV infusion 3 mg/kg, Mean",7580 ng·h/mL
same,Cmax,"[1]; IV infusion 3 mg/kg, Mean",10300 ng/mL
same,Dose Normalized AUClast,"[1]; IV infusion 3 mg/kg, Mean",2530
same,Dose Normalized Cmax,"[1]; IV infusion 3 mg/kg, Mean",3450
same,T1/2,"[1]; IV infusion 3 mg/kg, Mean",5.2 h
same,Vss,"[1]; IV infusion 3 mg/kg, Mean",1290 mL/kg
same,AUC0-24hr,[1]; [6],6650 ng·h/mL and 11000 ng·h/mL and 5120 ng·h/mL
same,AUCinf,[1]; [6],6730 ng·h/mL and 11200 ng·h/mL and 5180 ng·h/mL
same,AUCinf Extrapolated,[1]; [6],1.2% and 2.3% and 1.1%
same,AUClast,[1]; [6],6650 ng·h/mL and 11000 ng·h/mL and 5120 ng·h/mL
same,CL,[1]; [6],446 mL/h/kg and 267 mL/h/kg and 580 mL/h/kg
same,Cmax,[1]; [6],6830 ng/mL and 15500 ng/mL and 8690 ng/mL
same,Dose Normalized AUClast,[1]; [6],2220 and 3660 and 1710
same,Dose Normalized Cmax,[1]; [6],2280 and 5170 and 2900
same,T1/2,[1]; [6],4.4 h and 6.3 h and 5 h
same,Tmax,[1]; [6],2 min and 1.5 min
same,Vss,[1]; [6],1580 mL/kg and 905 mL/kg and 1370 mL/kg
same,AUC0-24hr,"[1]; IV infusion 10 mg/kg, Mean",50300 ng·h/mL
same,AUCinf,"[1]; IV infusion 10 mg/kg, Mean",50800 ng·h/mL
same,AUCinf Extrapolated,"[1]; IV infusion 10 mg/kg, Mean",1.3%
same,AUClast,"[1]; IV infusion 10 mg/kg, Mean",50300 ng·h/mL
same,Cmax,"[1]; IV infusion 10 mg/kg, Mean",38200 ng/mL
same,Dose Normalized AUClast,"[1]; IV infusion 10 mg/kg, Mean",5030
same,Dose Normalized Cmax,"[1]; IV infusion 10 mg/kg, Mean",3820
same,T1/2,"[1]; IV infusion 10 mg/kg, Mean",4.6 h
same,Vss,"[1]; IV infusion 10 mg/kg, Mean",1260 mL/kg
same,AUCinf Extrapolated,[1]; [7],1.0% and 1.8% and 0.99%
same,Cmax,[1]; [7],26000 ng/mL and 24300 ng/mL and 64300 ng/mL
same,Dose Normalized Cmax,[1]; [7],2600 and 2430 and 6430
same,T1/2,[1]; [7],4.3 h and 4.9 h and 4.6 h
same,Tmax,[1]; [7],2 min
same,MIC range,"[2]; S. aureus MRSA isolates, n 104",1 to 16 µg/mL
same,MIC range,"[2]; Staphylococcus aureus (n = 104), all methicillin-resistant",1 to 16 µg/mL
same,MIC50,[2]; n = 104,4 µg/mL
same,Mode (MIC),[2]; n = 104,4 µg/mL
same,Mode (MIC),[3],16 µg/mL
same,AUCinf,[4]; Group 4 IV infusion 10 mg/kg,80486 ng·h/mL
same,AUClast,[4]; Group 4 IV infusion 10 mg/kg,80339 ng·h/mL
same,Cmax,[4]; Group 4 IV infusion 10 mg/kg,67192 ng/mL
same,Extrapolated,[4]; Group 4 IV infusion 10 mg/kg,0.186%
same,MRTlast,[4]; Group 4 IV infusion 10 mg/kg,1.18 h
same,T1/2,[4]; Group 4 IV infusion 10 mg/kg,4.07 h
same,Tmax,[4]; Group 4 IV infusion 10 mg/kg,0.5333 h
same,AUCinf,[4]; IV infusion 1 mg/kg,787 ng·h/mL
same,AUClast,[4]; IV infusion 1 mg/kg,757 ng·h/mL
same,Cmax,[4]; IV infusion 1 mg/kg,1271 ng/mL
same,Extrapolated,[4]; IV infusion 1 mg/kg,3.28%
same,MRTlast,[4]; IV infusion 1 mg/kg,1.67 h
same,T1/2,[4]; IV infusion 1 mg/kg,6.16 h
same,Tmax,[4]; IV infusion 1 mg/kg,0.5333 h
same,AUCinf,[4]; IV infusion 5 mg/kg,25791 ng·h/mL
same,AUClast,[4]; IV infusion 5 mg/kg,25683 ng·h/mL
same,Cmax,[4]; IV infusion 5 mg/kg,30409 ng/mL
same,Extrapolated,[4]; IV infusion 5 mg/kg,0.424%
same,MRTlast,[4]; IV infusion 5 mg/kg,1.03 h
same,T1/2,[4]; IV infusion 5 mg/kg,5.43 h
same,Tmax,[4]; IV infusion 5 mg/kg,0.5333 h
